“And” between values parts separate entries of the source, which are not always exact repeats. Equal values may be shown once.
Legend:
fibroblasts [1] = assay: Hyaluronate production by fibroblasts; type: cell-based; set-up: key to FIBROBLAST EFFECTS Hyaluronate: NE = No Effect
fibroblasts [2] = assay: HLA-DR, fibroblast effects; type: cell-based; set-up: key: NE = No Effect; conditions: Table II summary
guinea pig skin = assay: In vivo fibrosis assay, intradermal injection into guinea pig skin; set-up: species or system Guinea pigs (Hartley strain); conditions: for fibrogenic response / fibrosis in guinea pig skin (in words): intradermal injection of peptide in collagen carrier; for Histologic Score (degree of fibrosis), Peptide site: 400 μg peptide in 1.7 mg type I collagen carrier, 100 μl intradermal, 9 days, one value per guinea pig, scale 0 to 4
Protocol: The ability of the peptides to induce cellular chemotaxis and a fibrogenic response (fibroblast proliferation and collagen synthesis) in vivo may be measured by intradermal injection of the peptides into the skin of guinea pigs. Generally, the in vivo, guinea pig skin studies were carried out according to the following protocol:
8 mg/cc stocks of the peptides according to the present invention in Dulbecco's PBS were sterile filtered using a 0.45μ syringe filter. PBS plus ZYDERM™ collagen (Collagen Corp., Inc.) was used as a control. Peptide stocks were diluted 1:1 with ZYDERM™ collagen (35 mg/ml), resulting in a 4 mg/ml peptide-collagen suspension. Peptide-collagen suspensions were kept on ice at all times and drawn up in 1 cc syringes fitted with 27 or 28 gauge needles.
(§1) Guinea pigs (Hartley strain, female, weanlings) were shaved on the left and right sides of their abdomens. 100 μl of a suspension of peptide-collagen was injected intradermally in one site on each side of each guinea pig. Each site was circled with an indelible ink pen. Pigs were remarked after 3 days. At appropriate times after injection, guinea pigs were sacrificed via CO2 narcosis. Animals were shaved and a depilatory was used to remove remaining stubble. Injection sites were excised using a skin biopsy punch (6 mm). Tissue was placed in vials with 10% neutral buffered formalin. Sections were processed for staining with H+E and Masson's Trichrome.
8 mg/cc stocks of TGF-β1 peptides in Dulbecco's PBS were sterile filtered using a 0.45μ syringe filter. PBS plus ZYDERM™ (Collagen Corp., Inc.) was used as a control. Peptide stocks were diluted 1:1 with ZYDERM™ collagen (35 mg/ml) resulting in a 4 mg/ml peptide-collagen suspension. Peptide-collagen suspensions were kept on ice at all times and drawn up in 1 cc syringes fitted with 27 or 28 gauge needles.
as §1, with “of” for “of a”, “peptide-collagenwas” for “peptide-collagen was”, “straining” for “staining”
In vivo fibrosis assays were performed. Guinea pigs were injected intradermally with 400 μg of either peptide VYYVGRK (SEQ ID NO. 1) or peptide PLPIVYYVGRKPKVE (SEQ ID NO. 6) in a 100 μl volume of saline containing type I bovine collagen carrier 1.7 mg (zyderm, Celtrex Corp. Palo Alto, Calif.). As a control, at a distant site on the same guinea pig, the collagen carrier plus saline was injected intradermally as a control. Nine days later, the animals were sacrificed, and the skin sectioned through the injection sites was processed for histology using Mason-Trichrome to stain collagen fibers. The degree of fibrosis was assessed at 400×magnification to determine degree of replacement of surrounding subcutaneous fat with newly synthesized collagen. FIG. 15 is a Mason-Trichrome, 400×[…] of 9 day post intradermal injection of guinea pig skin with 100 μl, 400 μg peptide PLPIVYYVGRKPKVE ([…]) in collagen carrier (1.7 mg). There is marked (score of 4) replacement of fat cells with newly synthesized collagen in the subcutaneous fatty layer. Fibroblasts are noted scattered throughout what was once subcutaneous fatty layer. FIG. 16 is a Mason-Trichrome 400×magnification of 9 days post intradermal injection of the same guinea pig as in […] at a distant site with saline and collagen carrier as a control. Note minimal (score of 1) replacement of fat cells with newly synthesized collagen. Few fibroblasts are visible in the subcutaneous fatty layer. […]

[3] = system: human peripheral blood monocytes; assay: Monocyte chemotaxis in modified Boyden chambers; type: cell-based; conditions: for monocyte chemotaxis / migration (in words): peptide in lower compartment of modified Boyden chamber; for Mean Monocytes per 20 OIF + SEM: Experiment 2, peptide in lower compartment
Description: Human peripheral blood neutrophils and monocytes, isolated from whole blood using standard techniques may also be used in the chemotaxis assays, in a manner similar to infant foreskin fibroblasts, to measure the chemotactic activity of the peptides towards inflammatory cells. Such cells may also be maintained in supplemented MEM as above, to which 5-10% FCS may be added. When using neutrophils and monocytes, instead of fibroblasts, the polycarbonate filters used in the modified Boyden chambers had pore sizes of 2 and 3 microns, respectively. As above, all assays were carried out in quadruplicate.
The following 7-mer peptides (peptides 368-374, corresponding to amino acids 368-374 of human TGF-β1): VYYVGRK (SEQ ID NO. 1), LYYIGKT (SEQ ID NO. 2), LYYVGRT (SEQ ID NO. 3), IYYVGRN (SEQ ID NO. 4) and IYYVGRT (SEQ ID NO. 5) were synthesized by the Merrifield technique, purified by HPLC, and tested at different concentrations in the same assay for their ability to stimulate chemotaxis of human peripheral blood monocytes in vitro modified Boyden chambers.

T-Cell = assay: T-cell proliferation; type: cell-based; set-up: key: NE = No Effect; conditions: Table II summary
[4] = system: fibroblasts, monocytes and neutrophils; assay: Chemotaxis assays expressed as Migration Index (cell type not separated); type: cell-based, human; conditions: cells migrating in response to peptide divided by cells migrating in response to medium; positive chemotactic control
Description: The peptides of the invention induce chemotaxis of fibroblasts and inflammatory cells (neutrophils and monocytes/macro-phages) in in vitro assays. Assays for measuring chemotaxis induced by the peptides can utilize either fibroblasts or monocytes. The following sets forth a representative assay for measuring fibroblast chemotaxis induced by the peptides of the invention:
Peptides 280-293, 296-322, 328-354, 358-382 (SEQ ID NO. 16), 366-387 (SEQ ID NO. 11), 364-378 (SEQ ID NO. 6) and 368-374 (SEQ ID NO. 1) of Table I, whose sequences correspond to the designated regions of TGF-β1 were tested in chemotaxis assays for the ability to induce migration of fibroblasts, monocytes and neutrophils. The peptides were added to the lower compartments of modified Boyden chambers at the indicated concentration.
Because the peptides were tested in different experiments, migration was expressed as "Migration Index" which is obtained by dividing the number of cells migrating in response to medium into the number of cells migrating in response to each peptide. A positive chemotactic control, peptide 340-391 gave migration indices between 7-11.

[5] = system: infant foreskin fibroblasts; assay: Collagen production by fibroblasts (modified Peterofsky-Diegelman assay); type: cell-based, human; conditions: [3H]proline incorporation into collagenase-sensitive protein

| Substance | FIBROBLAST EFFECTS Hyaluronate (fibroblasts [1]; Table II summary) | FIBROBLAST EFFECTS HLA-DR (fibroblasts [2]) | fibrogenic response / fibrosis in guinea pig skin (in words) (guinea pig skin) | Histologic Score (degree of fibrosis), Peptide site (guinea pig skin) | fibrogenic response / fibrosis in guinea pig skin (in words) (guinea pig skin; listed as PLPIVYYVGRKPKVE) | monocyte chemotaxis / migration (in words) [3] | T-Cell Proliferation (T-Cell) | Migration Index [4] | synthesis of hyaluronic acid (in words) (fibroblasts [1]) | collagen production by fibroblasts (in words) [5] | collagen production by fibroblasts (in words) ([5]; listed as VYYVGRKK) | Mean Monocytes per 20 OIF + SEM ([3]; Media added to upper compartment) [Monocytes per 20 OIF] | Mean Monocytes per 20 OIF + SEM ([3]; TGF-β1 (50 pg/ml) added to upper compartment) [Monocytes per 20 OIF] | monocyte chemotaxis / migration (in words) ([3]; listed as VYYVGRK) |
| --- | --- | --- | --- | --- | --- | --- | --- | --- | --- | --- | --- | --- | --- | --- |
| YSKVLALYNQHNPGASAAPC (YSKVLALYNQHNPGASAAPC) [Peptide 337-356] | NE | NE | induced a fibrinogenic response |  |  |  |  |  |  |  |  |  |  |  |
| PLPIVYYVGRKPKVE [Peptide 364-378, 15-mer peptide 364-378 of TGF-β1] |  | NE | induced a fibrinogenic response | 4 (4 equals 75 to 100% of fat cells replaced with collagen) and 3 (3 equals replacement of 50 to 75% of fat cells with collagen) | extensive collagen synthesis | induced migration of fibroblasts, monocytes and neutrophils in a dose dependent fashion | NE |  |  |  |  |  |  |  |
| 340-391: synthetic peptide corresponding to sequence 340-391 of TGF-β1; positive chemotactic control (VLALYNQHNPGASAAPCCVPQALEPLPIVYYVGRKPKVEQLSNMIVRSCKCS; printed: Val Leu Ala Leu Tyr Asn Gln His Asn Pro Gly Ala Ser Ala Ala Pro Cys Cys Val Pro Gln Ala Leu Glu Pro Leu Pro Ile Val Tyr Tyr Val Gly Arg Lys Pro Lys Val Glu Gln Leu Ser Asn Met Ile Val Arg Ser Cys Lys Cys Ser) [Peptide 340-391] |  | NE | induced a fibrinogenic response |  |  | migrated in a dose dependent fashion |  | 7-11 |  |  |  |  |  |  |
| VYYVGRK [Peptide 368-374, 7-mer corresponding to amino acids 368-374 of TGF-β1] |  | NE | did not induce | 1 (1 equals replacement of 10 to 25% of the fat cells with collagen) |  | induced migration of fibroblasts, monocytes and neutrophils in a dose dependent fashion | NE |  | does stimulate fibroblast chemotaxis and synthesis of collagen and hyaluronic acid | being the most potent | stimulated collagen production to some degree | 138 ± 8 | 50 ± 5 | induced monocyte chemotaxis at all of the concentrations tested |
